# Measurements from the supplement of paper PMC10307832.
# Assays:
# Test in all cases: relative viability (nuclei count vs DMSO), 5 days (fraction); higher = more cells survive
# 201T = test system: 201T
# Method in brief: (§1)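 Each reported value is a median over duplicate plates. It expresses relative viability: treated-well nuclei count divided by vehicle-well nuclei count. Lung cancer cell lines in 1536-well plates were dosed by pin tool a day after seeding, alone with one drug or with a fixed anchor-drug dose plus five library-drug doses (not always all listed) in √10 steps, and nuclei were counted after 5 days.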
# BEN = test system: BEN
# Method in brief: as §1
# EMC-BAC-2 = test system: EMC-BAC-2
# Method in brief: as §1
# HARA = test system: HARA
# Method in brief: as §1
# HCC-44 = test system: HCC-44
# Method in brief: as §1
# LCLC-103H = test system: LCLC-103H
# Method in brief: as §1
# LOU-NH91 = test system: LOU-NH91
# Method in brief: as §1
# NCI-H1395 = test system: NCI-H1395
# Method in brief: as §1
# NCI-H1993 = test system: NCI-H1993
# Method in brief: as §1
# NCI-H2023 = test system: NCI-H2023
# Method in brief: as §1
# NCI-H2087 = test system: NCI-H2087
# Method in brief: as §1
# NCI-H2126 = test system: NCI-H2126
# Method in brief: as §1
# NCI-H2347 = test system: NCI-H2347
# Method in brief: as §1
# NCI-H23 = test system: NCI-H23
# Method in brief: as §1
# NCI-H3122 = test system: NCI-H3122
# Method in brief: as §1
# NCI-H441 = test system: NCI-H441
# Method in brief: as §1
# NCI-H522 = test system: NCI-H522
# Method in brief: as §1
# NCI-H596 = test system: NCI-H596
# Method in brief: as §1
# NCI-H647 = test system: NCI-H647
# Method in brief: as §1
# NCI-H650 = test system: NCI-H650
# Method in brief: as §1
# NCI-H727 = test system: NCI-H727
# Method in brief: as §1
# NCI-H838 = test system: NCI-H838
# Method in brief: as §1
smiles,measurement,setting,value
CCN(CC)CCCCNc1ncc2cc(-c3cc(OC)cc(OC)c3)c(NC(=O)NC(C)(C)C)nc2n1 + N=C(N)NC(=N)NCCc1ccccc1 [Phenformin] (partner 250 µM),relative viability,201T; first compound 0.01 µM,0.477
same,relative viability,201T; first compound 0.03162 µM,0.479
same,relative viability,201T; first compound 0.1 µM,0.51
same,relative viability,201T; first compound 0.3162 µM,0.47
same,relative viability,201T; first compound 1 µM,0.376
same,relative viability,BEN; first compound 0.01 µM,0.261
same,relative viability,BEN; first compound 0.03162 µM,0.236
same,relative viability,BEN; first compound 0.1 µM,0.278
same,relative viability,BEN; first compound 0.3162 µM,0.464
same,relative viability,BEN; first compound 1 µM,0.244
same,relative viability,EMC-BAC-2; first compound 0.01 µM,0.525
same,relative viability,EMC-BAC-2; first compound 0.03162 µM,0.586
same,relative viability,EMC-BAC-2; first compound 0.1 µM,0.562
same,relative viability,EMC-BAC-2; first compound 0.3162 µM,0.592
same,relative viability,EMC-BAC-2; first compound 1 µM,0.418
same,relative viability,HARA; first compound 0.01 µM,0.49
same,relative viability,HARA; first compound 0.03162 µM,0.504
same,relative viability,HARA; first compound 0.1 µM,0.489
same,relative viability,HARA; first compound 0.3162 µM,0.395
same,relative viability,HARA; first compound 1 µM,0.364
same,relative viability,HCC-44; first compound 0.01 µM,0.189
same,relative viability,HCC-44; first compound 0.03162 µM,0.195
same,relative viability,HCC-44; first compound 0.1 µM,0.237
same,relative viability,HCC-44; first compound 0.3162 µM,0.234
same,relative viability,HCC-44; first compound 1 µM,0.22
same,relative viability,LCLC-103H; first compound 0.01 µM,0.34
same,relative viability,LCLC-103H; first compound 0.03162 µM,0.335
same,relative viability,LCLC-103H; first compound 0.1 µM,0.37
same,relative viability,LCLC-103H; first compound 0.3162 µM,0.357
same,relative viability,LCLC-103H; first compound 1 µM,0.293
same,relative viability,LOU-NH91; first compound 0.01 µM,0.572
same,relative viability,LOU-NH91; first compound 0.03162 µM,0.683
same,relative viability,LOU-NH91; first compound 0.1 µM,0.795
same,relative viability,LOU-NH91; first compound 0.3162 µM,0.797
same,relative viability,LOU-NH91; first compound 1 µM,0.713
same,relative viability,NCI-H1395; first compound 0.01 µM,0.426
same,relative viability,NCI-H1395; first compound 0.03162 µM,0.455
same,relative viability,NCI-H1395; first compound 0.1 µM,0.451
same,relative viability,NCI-H1395; first compound 0.3162 µM,0.431
same,relative viability,NCI-H1395; first compound 1 µM,0.397
same,relative viability,NCI-H1993; first compound 0.01 µM,0.501
same,relative viability,NCI-H1993; first compound 0.03162 µM,0.512
same,relative viability,NCI-H1993; first compound 0.1 µM,0.554
same,relative viability,NCI-H1993; first compound 0.3162 µM,0.492
same,relative viability,NCI-H1993; first compound 1 µM,0.514
same,relative viability,NCI-H2023; first compound 0.01 µM,0.415
same,relative viability,NCI-H2023; first compound 0.03162 µM,0.43
same,relative viability,NCI-H2023; first compound 0.1 µM,0.5
same,relative viability,NCI-H2023; first compound 0.3162 µM,0.432
same,relative viability,NCI-H2023; first compound 1 µM,0.4
same,relative viability,NCI-H2087; first compound 0.01 µM,0.42
same,relative viability,NCI-H2087; first compound 0.03162 µM,0.537
same,relative viability,NCI-H2087; first compound 0.1 µM,0.536
same,relative viability,NCI-H2087; first compound 0.3162 µM,0.522
same,relative viability,NCI-H2087; first compound 1 µM,0.429
same,relative viability,NCI-H2126; first compound 0.01 µM,0.496
same,relative viability,NCI-H2126; first compound 0.03162 µM,0.52
same,relative viability,NCI-H2126; first compound 0.1 µM,0.551
same,relative viability,NCI-H2126; first compound 0.3162 µM,0.623
same,relative viability,NCI-H2126; first compound 1 µM,0.515
same,relative viability,NCI-H2347; first compound 0.01 µM,0.381
same,relative viability,NCI-H2347; first compound 0.03162 µM,0.24
same,relative viability,NCI-H2347; first compound 0.1 µM,0.278
same,relative viability,NCI-H2347; first compound 0.3162 µM,0.505
same,relative viability,NCI-H2347; first compound 1 µM,0.379
same,relative viability,NCI-H23; first compound 0.01 µM,0.804
same,relative viability,NCI-H23; first compound 0.03162 µM,0.878
same,relative viability,NCI-H23; first compound 0.1 µM,0.791
same,relative viability,NCI-H23; first compound 0.3162 µM,0.879
same,relative viability,NCI-H23; first compound 1 µM,0.781
same,relative viability,NCI-H3122; first compound 0.01 µM,0.39
same,relative viability,NCI-H3122; first compound 0.03162 µM,0.362
same,relative viability,NCI-H3122; first compound 0.1 µM,0.633
same,relative viability,NCI-H3122; first compound 0.3162 µM,0.367
same,relative viability,NCI-H3122; first compound 1 µM,0.321
same,relative viability,NCI-H441; first compound 0.01 µM,0.826
same,relative viability,NCI-H441; first compound 0.03162 µM,0.87
same,relative viability,NCI-H441; first compound 0.1 µM,1.02
same,relative viability,NCI-H441; first compound 0.3162 µM,0.835
same,relative viability,NCI-H441; first compound 1 µM,0.933
same,relative viability,NCI-H522; first compound 0.01 µM,0.726
same,relative viability,NCI-H522; first compound 0.03162 µM,0.768
same,relative viability,NCI-H522; first compound 0.1 µM,0.582
same,relative viability,NCI-H522; first compound 0.3162 µM,0.688
same,relative viability,NCI-H522; first compound 1 µM,0.633
same,relative viability,NCI-H596; first compound 0.01 µM,0.66
same,relative viability,NCI-H596; first compound 0.03162 µM,0.727
same,relative viability,NCI-H596; first compound 0.1 µM,0.899
same,relative viability,NCI-H596; first compound 0.3162 µM,0.832
same,relative viability,NCI-H596; first compound 1 µM,0.621
same,relative viability,NCI-H647; first compound 0.01 µM,0.451
same,relative viability,NCI-H647; first compound 0.03162 µM,0.59
same,relative viability,NCI-H647; first compound 0.1 µM,0.556
same,relative viability,NCI-H647; first compound 0.3162 µM,0.804
same,relative viability,NCI-H647; first compound 1 µM,0.239
same,relative viability,NCI-H650; first compound 0.01 µM,0.417
same,relative viability,NCI-H650; first compound 0.03162 µM,0.442
same,relative viability,NCI-H650; first compound 0.1 µM,0.449
same,relative viability,NCI-H650; first compound 0.3162 µM,0.47
same,relative viability,NCI-H650; first compound 1 µM,0.451
same,relative viability,NCI-H727; first compound 0.01 µM,0.509
same,relative viability,NCI-H727; first compound 0.03162 µM,0.49
same,relative viability,NCI-H727; first compound 0.1 µM,0.547
same,relative viability,NCI-H727; first compound 0.3162 µM,0.728
same,relative viability,NCI-H727; first compound 1 µM,0.632
same,relative viability,NCI-H838; first compound 0.01 µM,0.498
same,relative viability,NCI-H838; first compound 0.03162 µM,0.562
same,relative viability,NCI-H838; first compound 0.1 µM,0.597
same,relative viability,NCI-H838; first compound 0.3162 µM,0.538
same,relative viability,NCI-H838; first compound 1 µM,0.291
